Measured values published in patent US6008209A, “Method of using vitamin D3 analogs with bis C-20 side chains” (Hoffmann-La Roche Inc., priority 1998, dated 1999).

Tests used:
[1] = system: ZR-75 cells; test: Cell proliferation assay in ZR-75 breast cancer cells; type: cell-based, human; conditions: for IC50: Homo sapiens, ZR75, 240 h, ZR-75, 10 days, MTT, read-out: IC50 (half-maximal reduction in 570 nm absorbance)
Procedure: ZR-75 cells are human mammary carcinoma cells that are positive for estrogen receptors. The potential activity of vitamin D3 analogs against breast cancer was assessed from inhibition of proliferation of ZR-75 cells in culture.
ZR-75 cells were plated at 12,500 cells/well in 24-well plates and incubated at 37° C. in 5% CO2 /95% air in RPMI medium containing 10% fetal bovine serum and 2 mM glutamine. Stock solutions of vitamin D3 analogs were prepared at a concentration of 10 mM in absolute ethanol and stored at -20° C. under argon. One day after plating, ZR-75 cells were refed with either control medium or medium containing varying concentrations of the vitamin D3 analog.
The IC50 value was defined as the concentration of the vitamin D3 analog corresponding to half-maximal reduction in 570 nm absorbance.

[2] = cited from earlier work
[3] = system: postmenopausal osteoporosis; conditions: cited from earlier work
[4] = system: bone; conditions: animal studies; cited from earlier work
[5] = system: PTH synthesis; conditions: cited from earlier work
[6] = system: steroid-induced bone loss; conditions: 0.5 to 1.0 micrograms/day plus calcium 1000 mg/day, with or without intranasal calcitonin 400 IU/day; cited from earlier work
[7] = system: murine leukemia; conditions: murine leukemia model systems; cited from earlier work
[8] = system: parathyroid hormone (serum PTH); test: Serum PTH suppression in rat renal insufficiency model (7/8 nephrectomy, secondary hyperparathyroidism); type: in vivo, Female Sprague Dawley rats; conditions: for PTH T = 1 - T = 0: po, seven days
Procedure: (§1) Female Sprague Dawley rats were anesthesized, their right kidney removed and 2-3 branches of the left renal artery were ligated to achieve 7/8 nephrectomy. They were placed on a high phosphorous diet (0.6% Ca and 0.8 phosphorous). Approximately 3-6 weeks after surgery, rats were bled to screen serum PTH levels and rats with PTH levels between 100-500 pg/ml were selected for the study.
(§2) 1 6 Formula Ia, 10 μg/kg/day, po
(§3) 2 6 Formula Ia, 1 μg/kg/day, po
(§4) 3 6 Formula Ia, 0.1 μg/kg/day, po
(§5) There was a pre-bleed (T=0) and each group was dosed daily for seven days by oral gavage with either the compound of Formula Ia (10, 1 or 0.1 μg/kg/day), vehicle control or 1,24(OH)2 vitamin D3 positive control. Compounds were predissolved in ethanol and diluted with vehicle (Miglyol 812) followed by evaporation of the ethanol.
(§6) After the last day of dosing, the animals were bled again (T=1) and sacrificed. Serum PTH assays were done with Nichols Institute Diagnostic Kit #40-2240. Serum calcium assays were done with Sigma Diagnostic Kit #587 with o-cresophthaleiri. Serum creatinine assays were done with Sigma Diagnostic Kit #1600-320 with […].

[9] = system: MCF-7 cells; test: Cell proliferation assay in MCF-7 breast cancer cells; type: cell-based, human; conditions: for IC50: Homo sapiens, MCF7, 168 h, MCF-7, 7 days, MTT, read-out: IC50 (half-maximal reduction in 570 nm absorbance)
Procedure: MCF-7 cells are human mammary carcinoma cells that are positive for estrogen receptors. The potential activity of vitamin D3 analogs against breast cancer was assessed from inhibition of proliferation of MCF-7 cells in culture.
MCF-7 cells were plated at 5000 cells/well in 96-well plates and incubated at 37° C. in 5% CO2 /95% air in Dulbecco's Modified Eagle Medium containing 10% fetal bovine serum 700 nM insulin, 2 mM glutamine, 0.1 mM MEM non-essential amino acids and 1 mM sodium pyruvate. Stock solutions of vitamin D3 analogs were prepared at a concentration of 10 mM in absolute ethanol and stored at -20° C. under argon. One day after plating, MCF-7 cells were refed with either control medium or medium containing varying concentrations of the vitamin D3 analog.
For each vitamin D3 analog, the IC50 value was determined from a graph relating the optical density at 570 nm to the concentration used. The IC50 value was defined as the concentration of the vitamin D3 analog corresponding to half-maximal reduction in 570 nm absorbance.

[10] = Serum calcium in rat renal insufficiency model (7/8 nephrectomy); type: in vivo, Female Sprague Dawley rats; set-up: Final Ca Levels: unit not given here; conditions: for Final Ca Levels: po, seven days, serum
Procedure: as §1, §2, §3, §4, §5, §6

Compound: C=C1/C(=C\C=C2/CCC[C@]3(C)[C@@H]([C@H](C)CCCC(C)(C)O)CC[C@@H]23)C[C@@H](O)C[C@@H]1O [1,25(OH)2 vit. D3, 1,25-Dihydroxy-cholecalciferol]
- IC50 [1]: 13 nM
- hypercalcemia in vivo ([2]; high dose treatment): hypercalcemia observed with high dose treatment
- therapeutic ratio ([2]; human usage): poor therapeutic ratio (hypercalciuria and hypercalcemia as well as nephrotoxicity)
- hypercalcemic effects ([2]; narrow therapeutic window, especially at high doses): potent hypercalcemic effects
- lower rate of new vertebral fractures versus elemental calcium 1000 mg/day ([3]; 0.25 microgram twice daily, 3 years, mild to moderate disease): 3 fold
- hypercalcaemia ([3]; at recommended dosages): infrequent and mild
- therapeutic window: proximity of therapeutic and toxic doses ([3]; human, in vivo): close proximity of therapeutic and toxic doses
- tolerability ([3]; overall): well tolerated
- bone anabolic activity [4]: suggested bone anabolic activity
- suppressive action on PTH synthesis [5]: direct suppressive action on PTH synthesis
- steroid-induced bone loss [6]: prevented steroid-induced bone loss
- anti-proliferative and differentiating effect [7]: not only an anti-proliferative effect, but also a differentiating effect
- PTH T = 1 - T = 0 ([8]; 0.1 μg/kg (table 2; table 1: 0.2 μg/kg/day)): -66 pg/mL
- IC50 [9]: 40 nM

Compound: C=C1/C(=C\C=C2/CCC[C@]3(C)[C@@H](C(CCCC(C)(C)O)CCCC(C)(C)O)CC[C@@H]23)C[C@@H](O)C[C@@H]1O [Formula Ia, (1α,3β,5Z,7E)-21-(3-hydroxy-3-methylbutyl)-9,10-Secocholesta-5,7,10, (19)-triene-1,3,25-triol]
- IC50 [1]: 0.3 nM
- potency relative to 1,25-dihydroxy-cholecalciferol in inhibition of ZR-75 growth ([1]; ZR-75): more than 40 times
- Final Ca Levels ([10]; 0.1 μg/kg/day): 10.20
- Final Ca Levels ([10]; 1 μg/kg/day): 10.35
- Final Ca Levels ([10]; 10 μg/kg/day): 11.97
- elevated calcium levels ([10]; in words): without causing elevated calcium levels
- PTH T = 1 - T = 0 ([8]; 0.1 μg/kg/day): 112 pg/mL
- PTH T = 1 - T = 0 ([8]; 1 μg/kg/day): -124 pg/mL
- PTH T = 1 - T = 0 ([8]; 10 μg/kg/day): -132 pg/mL
- suppressing the elevated levels of parathyroid hormone, versus 1,25(OH)2 vit. D3 ([8]; in words): more effective than 1,25(OH)2 vit. D3
- IC50 [9]: 0.8 nM
- potency relative to 1,25-dihydroxy-cholecalciferol in inhibition of MCF-7 growth ([9]; MCF-7): approximately 50 times
